# From ChEMBL document CHEMBL3885861, “Open TG-GATES”
# Organism: Rattus norvegicus
# Assay: Open TG-GATES - Regimen: Single
# Format: toxicity, organism-based, Sprague-Dawley
# Parameters: regimen Single, gender Male, age 6 weeks
# Details: in vivo, po, route gavage; for TC / TP / gamma-GTP / ALP / ALT / AST / CRE / DBIL / GLC / IP / K / LDH / Na / PL / RALB / TBIL / TG: tissue Plasma; for APTT / Bas / Eos / Fbg / Ht / Lym / MCH / MCHC / MCV / Mono / Neu / PT / RBC / Ret / WBC / Hb / Plat: tissue Blood; for KIDNEY_L / KIDNEY_R / KIDNEY_TOTAL: tissue Kidney; for LIVER: tissue Liver
# [1] = 0 mg/kg, 24 h, dose level Control
compound,measurement,setting,value
CC(C)Cc1ccc(C(C)C(=O)O)cc1 (centres undefined) [IBUPROFEN],TC,[1],79.4 mg/dL
same,TP,[1],5.5 g/dL
same,gamma-GTP,[1],1.2 IU/L
same,TERMINAL_BW,"60 mg/kg, 3 h, dose level Low",204.2 g
same,APTT,"60 mg/kg, 3 h, dose level Low",21.7 s
same,Bas,"60 mg/kg, 3 h, dose level Low",0%
same,Eos,"60 mg/kg, 3 h, dose level Low",0%
same,Fbg,"60 mg/kg, 3 h, dose level Low",294.6 mg/dL
same,Ht,"60 mg/kg, 3 h, dose level Low",39.3%
same,Lym,"60 mg/kg, 3 h, dose level Low",73.8%
same,MCH,"60 mg/kg, 3 h, dose level Low",21.4 pg
same,MCHC,"60 mg/kg, 3 h, dose level Low",33.7%
same,MCV,"60 mg/kg, 3 h, dose level Low",63.8 fL
same,Mono,"60 mg/kg, 3 h, dose level Low",2.2%
same,Neu,"60 mg/kg, 3 h, dose level Low",22.6%
same,PT,"60 mg/kg, 3 h, dose level Low",15.3 s
same,RBC,"60 mg/kg, 3 h, dose level Low",618.2 x10_4/ul
same,Ret,"60 mg/kg, 3 h, dose level Low",7.9%
same,WBC,"60 mg/kg, 3 h, dose level Low",101.5 x10_2/uL
same,KIDNEY_L,"60 mg/kg, 3 h, dose level Low",0.9 g
same,KIDNEY_R,"60 mg/kg, 3 h, dose level Low",0.9 g
same,KIDNEY_TOTAL,"60 mg/kg, 3 h, dose level Low",1.7 g
same,LIVER,"60 mg/kg, 3 h, dose level Low",9.2 g
same,ALP,"60 mg/kg, 3 h, dose level Low",1434.6 IU/L
same,ALT,"60 mg/kg, 3 h, dose level Low",47.8 IU/L
same,AST,"60 mg/kg, 3 h, dose level Low",79.4 IU/L
same,CRE,"60 mg/kg, 3 h, dose level Low",0.2 mg/dL
same,DBIL,"60 mg/kg, 3 h, dose level Low",0.002 mg/dL
same,GLC,"60 mg/kg, 3 h, dose level Low",177 mg/dL
same,IP,"60 mg/kg, 3 h, dose level Low",8.4 mg/dL
same,K,"60 mg/kg, 3 h, dose level Low",4.1 meq/L
same,LDH,"60 mg/kg, 3 h, dose level Low",256 IU/L
same,Na,"60 mg/kg, 3 h, dose level Low",141.2 meq/L
same,PL,"60 mg/kg, 3 h, dose level Low",144.8 mg/dL
same,RALB,"60 mg/kg, 3 h, dose level Low",3 g/dL
same,TBIL,"60 mg/kg, 3 h, dose level Low",0.028 mg/dL
same,TC,"60 mg/kg, 3 h, dose level Low",85.2 mg/dL
same,TG,"60 mg/kg, 3 h, dose level Low",64.2 mg/dL
same,TP,"60 mg/kg, 3 h, dose level Low",5.4 g/dL
same,gamma-GTP,"60 mg/kg, 3 h, dose level Low",1.4 IU/L
same,TERMINAL_BW,"60 mg/kg, 6 h, dose level Low",205.3 g
same,APTT,"60 mg/kg, 6 h, dose level Low",23.2 s
same,Bas,"60 mg/kg, 6 h, dose level Low",0%
same,Eos,"60 mg/kg, 6 h, dose level Low",1%
same,Fbg,"60 mg/kg, 6 h, dose level Low",292.4 mg/dL
same,Hb,"60 mg/kg, 6 h, dose level Low",13.4 g/dL
same,Ht,"60 mg/kg, 6 h, dose level Low",39.3%
same,Lym,"60 mg/kg, 6 h, dose level Low",72.2%
same,MCH,"60 mg/kg, 6 h, dose level Low",21.6 pg
same,MCHC,"60 mg/kg, 6 h, dose level Low",34%
same,MCV,"60 mg/kg, 6 h, dose level Low",63.5 fL
same,Mono,"60 mg/kg, 6 h, dose level Low",2.6%
same,PT,"60 mg/kg, 6 h, dose level Low",16 s
same,Plat,"60 mg/kg, 6 h, dose level Low",116.1 x10_4/uL
same,RBC,"60 mg/kg, 6 h, dose level Low",619.4 x10_4/ul
same,Ret,"60 mg/kg, 6 h, dose level Low",8%
same,WBC,"60 mg/kg, 6 h, dose level Low",76.4 x10_2/uL
same,KIDNEY_L,"60 mg/kg, 6 h, dose level Low",0.9 g
same,KIDNEY_R,"60 mg/kg, 6 h, dose level Low",1 g
same,KIDNEY_TOTAL,"60 mg/kg, 6 h, dose level Low",1.9 g
same,LIVER,"60 mg/kg, 6 h, dose level Low",8.8 g
same,ALP,"60 mg/kg, 6 h, dose level Low",1432.6 IU/L
same,ALT,"60 mg/kg, 6 h, dose level Low",45 IU/L
same,AST,"60 mg/kg, 6 h, dose level Low",79.6 IU/L
same,CRE,"60 mg/kg, 6 h, dose level Low",0.1 mg/dL
same,DBIL,"60 mg/kg, 6 h, dose level Low",0.004 mg/dL
same,GLC,"60 mg/kg, 6 h, dose level Low",174.8 mg/dL
same,IP,"60 mg/kg, 6 h, dose level Low",9.6 mg/dL
same,K,"60 mg/kg, 6 h, dose level Low",4.5 meq/L
same,LDH,"60 mg/kg, 6 h, dose level Low",256.6 IU/L
same,Na,"60 mg/kg, 6 h, dose level Low",140 meq/L
same,PL,"60 mg/kg, 6 h, dose level Low",130.4 mg/dL
same,RALB,"60 mg/kg, 6 h, dose level Low",2.9 g/dL
same,TBIL,"60 mg/kg, 6 h, dose level Low",0.032 mg/dL
same,TC,"60 mg/kg, 6 h, dose level Low",72.6 mg/dL
same,TG,"60 mg/kg, 6 h, dose level Low",56 mg/dL
same,TP,"60 mg/kg, 6 h, dose level Low",5.1 g/dL
same,gamma-GTP,"60 mg/kg, 6 h, dose level Low",1.2 IU/L
same,TERMINAL_BW,"60 mg/kg, 9 h, dose level Low",199.8 g
same,Bas,"60 mg/kg, 9 h, dose level Low",0%
same,Eos,"60 mg/kg, 9 h, dose level Low",0.6%
same,Fbg,"60 mg/kg, 9 h, dose level Low",275 mg/dL
same,Hb,"60 mg/kg, 9 h, dose level Low",12.8 g/dL
same,Ht,"60 mg/kg, 9 h, dose level Low",38.1%
same,Lym,"60 mg/kg, 9 h, dose level Low",76.6%
same,MCH,"60 mg/kg, 9 h, dose level Low",21.5 pg
same,MCHC,"60 mg/kg, 9 h, dose level Low",33.6%
same,MCV,"60 mg/kg, 9 h, dose level Low",64.1 fL
same,Mono,"60 mg/kg, 9 h, dose level Low",2.6%
same,Neu,"60 mg/kg, 9 h, dose level Low",19.2%
same,PT,"60 mg/kg, 9 h, dose level Low",15.8 s
same,Plat,"60 mg/kg, 9 h, dose level Low",116.8 x10_4/uL
same,RBC,"60 mg/kg, 9 h, dose level Low",594.6 x10_4/ul
same,Ret,"60 mg/kg, 9 h, dose level Low",8.2%
same,WBC,"60 mg/kg, 9 h, dose level Low",66.8 x10_2/uL
same,KIDNEY_L,"60 mg/kg, 9 h, dose level Low",1 g
same,KIDNEY_R,"60 mg/kg, 9 h, dose level Low",1 g
same,KIDNEY_TOTAL,"60 mg/kg, 9 h, dose level Low",1.9 g
same,LIVER,"60 mg/kg, 9 h, dose level Low",8.2 g
same,ALP,"60 mg/kg, 9 h, dose level Low",1788.8 IU/L
same,ALT,"60 mg/kg, 9 h, dose level Low",40.8 IU/L
same,AST,"60 mg/kg, 9 h, dose level Low",72.4 IU/L
same,CRE,"60 mg/kg, 9 h, dose level Low",0.1 mg/dL
same,DBIL,"60 mg/kg, 9 h, dose level Low",0.006 mg/dL
same,GLC,"60 mg/kg, 9 h, dose level Low",174.8 mg/dL
same,K,"60 mg/kg, 9 h, dose level Low",4.4 meq/L
same,LDH,"60 mg/kg, 9 h, dose level Low",208.4 IU/L
same,Na,"60 mg/kg, 9 h, dose level Low",139.8 meq/L
same,RALB,"60 mg/kg, 9 h, dose level Low",2.9 g/dL
same,TBIL,"60 mg/kg, 9 h, dose level Low",0.026 mg/dL
same,TC,"60 mg/kg, 9 h, dose level Low",67 mg/dL
same,TG,"60 mg/kg, 9 h, dose level Low",58.6 mg/dL
same,TP,"60 mg/kg, 9 h, dose level Low",5.3 g/dL
same,gamma-GTP,"60 mg/kg, 9 h, dose level Low",1 IU/L
same,TERMINAL_BW,"60 mg/kg, 24 h, dose level Low",206.8 g
same,APTT,"60 mg/kg, 24 h, dose level Low",21.7 s
same,Bas,"60 mg/kg, 24 h, dose level Low",0%
same,Eos,"60 mg/kg, 24 h, dose level Low",1%
same,Fbg,"60 mg/kg, 24 h, dose level Low",309.8 mg/dL
same,Ht,"60 mg/kg, 24 h, dose level Low",40.6%
same,Lym,"60 mg/kg, 24 h, dose level Low",78.2%
same,MCH,"60 mg/kg, 24 h, dose level Low",21.6 pg
same,MCHC,"60 mg/kg, 24 h, dose level Low",34.1%
same,MCV,"60 mg/kg, 24 h, dose level Low",63.2 fL
same,Mono,"60 mg/kg, 24 h, dose level Low",3.2%
same,Neu,"60 mg/kg, 24 h, dose level Low",17%
same,PT,"60 mg/kg, 24 h, dose level Low",16.5 s
same,Plat,"60 mg/kg, 24 h, dose level Low",112 x10_4/uL
same,RBC,"60 mg/kg, 24 h, dose level Low",643.6 x10_4/ul
same,Ret,"60 mg/kg, 24 h, dose level Low",6.8%
same,WBC,"60 mg/kg, 24 h, dose level Low",119.2 x10_2/uL
same,KIDNEY_L,"60 mg/kg, 24 h, dose level Low",0.9 g
same,KIDNEY_R,"60 mg/kg, 24 h, dose level Low",0.9 g
same,KIDNEY_TOTAL,"60 mg/kg, 24 h, dose level Low",1.8 g
same,LIVER,"60 mg/kg, 24 h, dose level Low",9.8 g
same,ALP,"60 mg/kg, 24 h, dose level Low",1457.4 IU/L
same,ALT,"60 mg/kg, 24 h, dose level Low",46.6 IU/L
same,AST,"60 mg/kg, 24 h, dose level Low",76.8 IU/L
same,CRE,"60 mg/kg, 24 h, dose level Low",0.2 mg/dL
same,DBIL,"60 mg/kg, 24 h, dose level Low",0 mg/dL
same,GLC,"60 mg/kg, 24 h, dose level Low",183.6 mg/dL
same,IP,"60 mg/kg, 24 h, dose level Low",7.7 mg/dL
same,K,"60 mg/kg, 24 h, dose level Low",4.5 meq/L
same,LDH,"60 mg/kg, 24 h, dose level Low",274 IU/L
same,Na,"60 mg/kg, 24 h, dose level Low",141.6 meq/L
same,PL,"60 mg/kg, 24 h, dose level Low",142.2 mg/dL
same,RALB,"60 mg/kg, 24 h, dose level Low",3 g/dL
same,TBIL,"60 mg/kg, 24 h, dose level Low",0.004 mg/dL
same,TC,"60 mg/kg, 24 h, dose level Low",76.6 mg/dL
